The target of assay [1] is T1, human vasopressin V1a receptor (Homo sapiens, UniProt P37288). Put plainly: Functional assay on human vasopressin V1a receptor expressing cell line (intracellular Ca2+ fluorescence). It counts as cell-based. As to conditions: 1321N1 cells, (Arg8)-vasopressin at EC80; read-out: IC50 (nM) on hV1a cell line.
Assay [2] has as its target T1, human vasopressin V1a receptor. Put plainly: Human vasopressin V1a receptor binding assay. As to conditions: 1321N1 cell membranes, [3H]vasopressin; read-out: Ki (nM) on hV1a cell line. Summed up:
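Radioligand competition on membranes from cells expressing human V1a receptor; incubation 60 minutes at 27° C., non-specific binding with 1.2×10^−6 M unlabeled (Arg^8)-vasopressin, filtration separation. Ki by Cheng-Prusoff using Scatchard-derived KD, from at least two independent experiments.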

T1 sequence (P37288 whole entry): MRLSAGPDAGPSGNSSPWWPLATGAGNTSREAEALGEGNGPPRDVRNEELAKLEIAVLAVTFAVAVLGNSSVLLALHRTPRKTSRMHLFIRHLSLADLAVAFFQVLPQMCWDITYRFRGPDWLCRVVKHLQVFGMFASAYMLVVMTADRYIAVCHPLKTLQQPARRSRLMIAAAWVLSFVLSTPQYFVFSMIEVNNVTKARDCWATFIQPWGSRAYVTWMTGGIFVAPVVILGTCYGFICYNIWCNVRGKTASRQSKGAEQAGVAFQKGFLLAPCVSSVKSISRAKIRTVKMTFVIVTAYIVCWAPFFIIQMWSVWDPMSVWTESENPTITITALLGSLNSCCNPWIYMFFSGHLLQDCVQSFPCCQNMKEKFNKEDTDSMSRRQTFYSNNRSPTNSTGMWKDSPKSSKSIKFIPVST

One may read the IC50 as the point on the concentration scale where inhibition reaches its midpoint. A word on the Ki: it is the equilibrium dissociation constant of an inhibitor or competing ligand from its target. Regarding `O=C(N[C@@H]1Cc2cc(Cl)ccc2-n2c(nnc2[C@H]2CC[C@H](Oc3ccccn3)CC2)C1)C1CCOCC1` [Example 180, N-{(5R)-8-chloro-1-[trans-4-(pyridin-2-yloxy)cyclohexyl]-5,6-dihydro-4H-[1,2,4]triazolo[4,3-a][1]benzazepin-5-yl}tetrahydro-2H-pyran-4-carboxamide], the IC50 in assay [1] was 4.1 nM. Further, the Ki in assay [2] was 1.1 nM.

Consider `COC1Cc2cc(Cl)ccc2-n2c(nnc2C2CCN(C(=O)c3ccccn3)C2)C1` (centres unmarked) [Example 189, [3-(8-chloro-5-methoxy-5,6-dihydro-4H-[1,2,4]triazolo[4,3-a][1]benzazepin-1-yl)pyrrolidin-1-yl](pyridin-2-yl)methanone], for which the IC50 in assay [1] stood at 229 nM. Besides, the Ki in assay [2] was determined as 10 nM.

Take `O=C([C@H]1CC[C@H](c2nnc3n2-c2ccc(Br)cc2CC2(C3)OCCO2)CC1)N1CCCCC1` [Example 85, [Trans-4-(8′-bromo-4′H,6′H-spiro[1,3-dioxolane-2,5′-[1,2,4]triazolo[4,3-a][1]benzazepin]-1′-yl)cyclohexyl](piperidin-1-yl)methanone]: in assay [1], the IC50 amounted to 1.8 nM. For the same compound, the Ki in assay [2] worked out at 0.4 nM.

Turning to `O=C(N[C@H]1Cc2cc(Cl)ccc2-n2c(nnc2[C@H]2CC[C@H](Oc3ccccn3)CC2)C1)C1CCC(F)(F)CC1` [Example 214, N-{(5S)-8-chloro-1-[trans-4-(pyridin-2-yloxy)cyclohexyl]-5,6-dihydro-4H-[1,2,4]triazolo[4,3-a][1]benzazepin-5-yl}-4,4-difluorocyclohexanecarboxamide], in assay [1], the IC50 worked out at 672 nM. Moreover, the Ki in assay [2] came out at 66 nM.

As to `O=C1Cc2cc(Br)ccc2-n2c(nnc2[C@H]2CC[C@H](Oc3ccccn3)CC2)C1` [Example 64], the IC50 in assay [1] was found to be 1.1 nM. For the same compound, the Ki in assay [2] was 0.5 nM.

With `CN(C)C(=O)NC1Cc2cc(Cl)ccc2-n2c(nnc2[C@H]2CC[C@H](Oc3ccccn3)CC2)C1` (stereo partly drawn) [Example 16, 3-{8-chloro-1-[trans-4-(pyridin-2-yloxy)cyclohexyl]-5,6-dihydro-4H-[1,2,4]triazolo[4,3-a][1]benzazepin-5-yl}-1,1-dimethylurea], the IC50 in assay [1] was 10 nM. For the same compound, the Ki in assay [2] is 3 nM.

For `COC1Cc2cc(Cl)ccc2-n2c(nnc2C2CCN(Cc3cccnc3)C2)C1` (centres unmarked) [Example 184, 8-chloro-5-methoxy-1-[1-(pyridin-3-ylmethyl)pyrrolidin-3-yl]-5,6-dihydro-4H-[1,2,4]triazolo[4,3-a][1]benzazepine], the IC50 in assay [1] was 25 nM. Also, the Ki in assay [2] turned out to be 0.6 nM.

`CC(C)(C)OC(=O)NC1Cc2ccccc2-n2c(nnc2[C@H]2CC[C@H](Oc3ccccn3)CC2)C1` (stereo partly drawn) [Example 142, Tert-butyl {1-[trans-4-(pyridin-2-yloxy)cyclohexyl]-5,6-dihydro-4H-[1,2,4]triazolo[4,3-a][1]benzazepin-5-yl}carbamate]: the IC50 in assay [1] stood at 225 nM. In addition, the Ki in assay [2] was 14.3 nM.

With `O=C(N[C@H]1Cc2cc(Cl)ccc2-n2c(nnc2[C@H]2CC[C@H](Oc3ccccn3)CC2)C1)C1CCOCC1` [Example 151], the IC50 in assay [1] came out at 209 nM. Further, the Ki in assay [2] was determined as 30 nM.

Turning to `COC1Cc2cc(C(F)(F)F)ccc2-n2c(nnc2[C@H]2CC[C@H](Oc3ccccn3)CC2)C1` (stereo partly drawn) [Example 50, 5-methoxy-1-[trans-4-(pyridin-2-yloxy)cyclohexyl]-8-(trifluoromethyl)-5,6-dihydro-4H-[1,2,4]triazolo[4,3-a][1]benzazepine], the IC50 in assay [1] was found to be 20 nM. In addition, in assay [2], the Ki was 2.7 nM.

As to `COC1Cc2cc(Cl)ccc2-n2c(nnc2[C@@H]2CCN(Cc3ccccn3)C2)C1` (stereo partly drawn) [Example 248, 8-chloro-5-methoxy-1-[(3R)-1-(pyridin-2-ylmethyl)pyrrolidin-3-yl]-5,6-dihydro-4H-[1,2,4]triazolo[4,3-a][1]benzazepine], the IC50 in assay [1] was found to be 22 nM. In addition, the Ki in assay [2] is 2.3 nM.

For `CN(C)CCN[C@@H]1Cc2cc(Cl)ccc2-n2c(nnc2[C@H]2CC[C@H](Oc3ccccn3)CC2)C1` [Example 194, N′-{(5R)-8-chloro-1-[trans-4-(pyridin-2-yloxy)cyclohexyl]-5,6-dihydro-4H-[1,2,4]triazolo[4,3-a][1]benzazepin-5-yl}-N,N-dimethylethane-1,2-diamine], the IC50 in assay [1] stood at 22 nM. Besides, the Ki in assay [2] amounted to 1.1 nM.

For the compound `NCC(=O)N[C@H]1Cc2cc(Cl)ccc2-n2c(nnc2[C@H]2CC[C@H](Oc3ccccn3)CC2)C1` [Example 11, N-{(5S)-8-chloro-1-[trans-4-(pyridin-2-yloxy)cyclohexyl]-5,6-dihydro-4H-[1,2,4]triazolo[4,3-a][1]benzazepin-5-yl}glycinamide], the IC50 in assay [1] came out at 480 nM. The Ki in assay [2] turned out to be 32 nM.

In the case of `NC1Cc2cc(Cl)ccc2-n2c(nnc2[C@H]2CC[C@H](N3CCOCC3)CC2)C1` (stereo partly drawn) [Example 113, 8-chloro-1-[trans-4-(morpholin-4-yl)cyclohexyl]-5,6-dihydro-4H-[1,2,4]triazolo[4,3-a][1]benzazepin-5-amine], the IC50 in assay [1] came to 305 nM. Also, the Ki in assay [2] worked out at 21 nM.

For the compound `OC1Cc2cc(Cl)ccc2-n2c(nnc2[C@H]2CC[C@H](C(F)(F)F)CC2)C1` (stereo partly drawn) [Example 72, 8-chloro-1-[trans-4-(trifluoromethyl)cyclohexyl]-5,6-dihydro-4H-[1,2,4]triazolo[4,3-a][1]benzazepine-5-ol], the IC50 in assay [1] was 21 nM. Moreover, the inhibitory constant (Ki) in assay [2] worked out at 7.5 nM.

As for `COC1Cc2cc(Cl)ccc2-n2c(nnc2C2CCN(C(=O)OC(C)(C)C)CC2)C1` (centres unmarked) [Example 140, Tert-butyl 4-(8-chloro-5-methoxy-5,6-dihydro-4H-[1,2,4]triazolo[4,3-a][1]benzazepin-1-yl)piperidine-1-carboxylate], in assay [1], the IC50 amounted to 57 nM. Moreover, the Ki in assay [2] amounted to 2.4 nM.

For the compound `N[C@@H](C(=O)N[C@@H]1Cc2cc(Cl)ccc2-n2c(nnc2[C@H]2CC[C@H](Oc3ccccn3)CC2)C1)c1ccccc1` [Example 14, (2R)-2-amino-N-{(5R)-8-chloro-1-[trans-4-(pyridin-2-yloxy)cyclohexyl]-5,6-dihydro-4H-[1,2,4]triazolo[4,3-a][1]benzazepin-5-yl}-2-phenylacetamide], the IC50 in assay [1] is 10 nM. The Ki in assay [2] was found to be 1.1 nM.

Turning to `COC1Cc2cc(Cl)ccc2-n2c(nnc2[C@H]2CC[C@H](N3CCN(C)CC3)CC2)C1` (stereo partly drawn) [Example 182, 8-chloro-5-methoxy-1-[trans-4-(4-methylpiperazin-1-yl)cyclohexyl]-5,6-dihydro-4H-[1,2,4]triazolo[4,3-a][1]benzazepine], in assay [1], the 50% inhibitory concentration (IC50) was found to be 416 nM. The Ki in assay [2] is 19 nM.

With `N[C@H](C(=O)N[C@@H]1Cc2cc(Cl)ccc2-n2c(nnc2[C@H]2CC[C@H](Oc3ccccn3)CC2)C1)c1ccccc1` [Example 13, (2S)-2-amino-N-{(5R)-8-chloro-1-[trans-4-(pyridin-2-yloxy)cyclohexyl]-5,6-dihydro-4H-[1,2,4]triazolo[4,3-a][1]benzazepin-5-yl}-2-phenylacetamide], the half-inhibitory concentration (IC50) in assay [1] came to 45 nM. Moreover, in assay [2], the Ki is 5 nM.

With `CO[C@@H]1Cc2cc(F)ccc2-n2c(nnc2[C@H]2CC[C@H](Oc3ccccn3)CC2)C1` (single isomer, unassigned) [Example 176], the IC50 in assay [1] came to 1.1 nM. In assay [2], the Ki was determined as 0.4 nM.

Regarding `O=C(N[C@H]1Cc2cc(Cl)ccc2-n2c(nnc2[C@H]2CC[C@H](Oc3ccccn3)CC2)C1)C1CC(F)(F)C1` [Example 210, N-{(5S)-8-chloro-1-[trans-4-(pyridin-2-yloxy)cyclohexyl]-5,6-dihydro-4H-[1,2,4]triazolo[4,3-a][1]benzazepin-5-yl}-3,3-difluorocyclobutanecarboxamide], in assay [1], the IC50 was determined as 292 nM. Besides, in assay [2], the Ki turned out to be 56 nM.

As for `CC(C)NC1Cc2cc(Cl)ccc2-n2c(nnc2[C@H]2CC[C@H](C(F)(F)F)CC2)C1` (stereo partly drawn) [Example 44, 8-chloro-N-(propan-2-yl)-1-[trans-4-(trifluoromethyl)cyclohexyl]-5,6-dihydro-4H-[1,2,4]triazolo[4,3-a][1]benzazepine-5-amine], the half-inhibitory concentration (IC50) in assay [1] amounted to 480 nM. Also, the Ki in assay [2] was determined as 26 nM.

In the case of `CCC[C@]1(OC)CC[C@H](c2nnc3n2-c2ccc(Cl)cc2CC2(C3)OCCO2)CC1` [Example 242, 8′-chloro-1′-(trans-4-methoxy-4-propylcyclohexyl)-4′H,6′H-spiro[1,3-dioxolane-2,5′-[1,2,4]triazolo 4,3a][1]benzoepin], the IC50 in assay [1] stood at 1.8 nM. In addition, the Ki in assay [2] was determined as 0.5 nM.

As to `Clc1ccc2c(c1)CC1(Cc3nnc([C@H]4CCN(Cc5ccccn5)C4)n3-2)OCCO1` [Example 252, 8′-chloro-1′-[(3S)-1-(pyridin-2-ylmethyl)pyrrolidin-3-yl]-4′H,6′H-spiro[1,3-dioxolane-2,5′-[1,2,4]triazolo[4,3-a][1]benzazepine]], the IC50 in assay [1] turned out to be 8.2 nM. In addition, the Ki in assay [2] stood at 0.7 nM.

Regarding `COC1Cc2cc(Cl)ccc2-n2c(nnc2[C@H]2CC[C@](OC)(C(F)(F)F)CC2)C1` (stereo partly drawn) [Example 222, 8-chloro-5-methoxy-1-[cis-4-methoxy-4-(trifluoromethyl)cyclohexyl]-5,6-dihydro-4H-[1,2,4]triazolo[4,3-a][1]benzazepine], the 50% inhibitory concentration (IC50) in assay [1] came to 40 nM. Moreover, in assay [2], the Ki was 5.8 nM.

Turning to `CCC(C)C(=O)N[C@H]1Cc2cc(Cl)ccc2-n2c(nnc2[C@H]2CC[C@H](Oc3ccccn3)CC2)C1` (some centres unmarked) [Example 152], the IC50 in assay [1] came out at 737 nM. For the same compound, the Ki in assay [2] came to 67 nM.

For `CC(C)C(=O)N[C@H]1Cc2cc(Cl)ccc2-n2c(nnc2[C@H]2CC[C@H](Oc3ccccn3)CC2)C1` [Example 120, N-{(5S)-8-chloro-1-[trans-4-(pyridin-2-yloxy)cyclohexyl]-5,6-dihydro-4H-[1,2,4]triazolo[4,3-a][1]benzazepin-5-yl}-2-methylpropanamide], the IC50 in assay [1] is 465 nM. Besides, the Ki in assay [2] was 52 nM.

Regarding `OC1Cc2cc(Br)ccc2-n2c(nnc2[C@H]2CC[C@H](C(F)(F)F)CC2)C1` (some centres unmarked) [Example 93], in assay [1], the IC50 amounted to 16 nM. Besides, the Ki in assay [2] is 3.2 nM.

The values above are taken from patent US11298363B2, “Triazolobenzazepines as vasopressin V1a receptor antagonists” (RICHTER GEDEON NYRT., priority 2017, dated 2022).
